Tests used:
SMN2-luciferase reporter = SMN2-luciferase reporter qHTS assay; format: cell-based, human; conditions: SMN2-luc reporter, FIG. 1
Summary of the method: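 SMN2 exon-7 splicing firefly-luciferase reporter cell line, ~2000 cells/well in phenol-red-free DMEM with 10% serum, allowed to adhere 10–12 h, then exposed to compounds for 2 days at 37 C, 5% CO2. Seven-point five-fold dilution series (e.g. 50 μM to 3.2 nM), OneGlo luminescence read, curves fitted to Hill equation.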

human SMN protein = test: Western blot of SMN protein in SMA patient fibroblasts (3813); format: cell-based; conditions: SMA patient cells (3813), 0.1-10 μM, FIG. 2
Description: Type I spinal muscular atrophy (SMA)-affected human primary fibroblasts (#GM03813) and carrier parents (#GM03814, parent and #GM03815, […]) are obtained live with low passage number from Coriell Cell Repositories. […] For detection of SMN protein in patient fibroblasts, 8,000 cells per cm^2 are plated 24 hours prior to drug addition. Fresh media and compound are added every 24 hours. After 72 hours, cells are harvested, washed with cold PBS, and lysed. Samples are subjected to polyacrylamide gel electrophoresis (PAGE). It is determined that 10 μg total protein per lane is within the linear range for immunoblot detection of SMN and alpha-tubulin. Western blots of the gel are probed for SMN with the 4B7 mouse monoclonal antibody (from the lab of Christian Lorson). A goat anti-mouse antibody (Santa Cruz Biotechnology/#sc-2005) conjugated to horseradish peroxidase (HRP) is used as the secondary antibody. Quantification of protein is performed by detecting chemiluminescence with a Fujifilm LAS-4000 Multifunctional Imaging System. […] We incubated a fibroblast cell line from a type I SMA patient (3813 cell line) with different doses of analogues and assessed the SMN protein level by quantitative western blotting (FIG. 4). We observed that analogue 8 m at concentration of 37 nanomolar increased the SMN protein level by 2-3 fold. […] This could be due with the intrinsic mechanism of action or to other causes, such us concentration dependent compound solubility.

expression of SMN2 / levels of the full length SMN2 gene (in words) (SMN2-luciferase reporter): increases the expression of SMN2
Compound: NC(=O)C1CCN(c2nc(-c3ccc(Br)cc3)cs2)CC1 [MLS000698854]
SMN protein by Western blot (in words) (human SMN protein): concentration-dependent increase in SMN protein
